# Measured values as given in patent publication US11013780B2, “Methods of treating female infertility” (Myovant Sciences GmbH, priority 2016, dated 2021).
# Where a SMILES comes first, the peptide text is derived from it. [ ]: non-standard residue; d: D form. Arg(Me) = CNC(=N)NCCC[C@H](N)C(=O)O; Hyp = O=C(O)[C@@H]1C[C@@H](O)CN1; azaGly = NNC(=O)O
# Tests used:
# [1] = Multiple-dose PK, 2-hour SC infusion once daily for 14 days, Japanese prostate cancer patients; assay type: in vivo, human; conditions: male, human, in vivo, sc; for dose excreted: Mean percent cumulative urinary excretion at 24 hours postdose
# Description: It was an open-label, ascending dose study of API-MA administered via 2-hour SC infusion once daily for 14 days that was expected to suppress testosterone in Japanese hormone-naïve prostate cancer patients. Six patients received API-MA at doses of 0.5 mg (3 patients) and 1.0 mg (3 patients) a day for 14 days.
# To measure plasma concentrations of API-MA, blood specimens were collected at the following times: Day 1 (predose and 2, 4, 6, 10 hours postdose); days 2, 4, 6, 8, 10, and 12 (predose); day 14 (predose and 2, 4, 6, 10, 24, 48 hours postdose); day 21; and day 28. To measure urinary excretion of API-MA, urine specimens were collected at the following times: Day 1 (predose and 0 to 4, 4 to 8, 8 to 12, 12 to 24 hours postdose) and day 14 (0 to 4, 4 to 8, 8 to 12, 12 to 24 hours postdose).
# [2] = Pharmacokinetics in monkeys after SC and IV administration; conditions: monkey, in vivo
# Description: The PK of API-MA was studied in monkeys after SC and IV administration.
# [3] = Pharmacokinetics in dogs after SC and IV administration; conditions: dog, in vivo
# Description: The PK of API-MA was studied in dogs after SC and IV administration.
# [4] = Pharmacokinetics in rats after SC and IV administration; conditions: rat, in vivo
# Description: The PK of API-MA was studied in rats after SC and IV administration.
# The PK linearity of API-MA was also investigated in rats after IV administration. The plasma C5min and AUC(0-24) values increased dose-proportionally. […] The elimination T1/2 values were 0.4 hours at 0.01 and 0.1 mg/kg and 0.5 hours at 1 mg/kg. These findings indicate that the PK of API-FB was linear in rats after single IV administration over the dose range of 0.01 to 1 mg/kg. The greater than dose-proportional increase in the first-pass kinetics with SC administration would indicate nonlinear PK in rats after SC administration.
# [5] = iv, 1 mg/kg, T½ γ (elimination)
smiles,measurement,setting,value
"CNC(=N)NCCC[C@H](NC(=O)[C@H](CC(C)C)NC(=O)NNC(=O)[C@H](Cc1ccccc1)NC(=O)[C@@H](NC(=O)[C@H](CC(N)=O)NC(=O)[C@@H]1C[C@@H](O)CN1C(=O)[C@@H](Cc1ccc(O)cc1)NC(C)=O)[C@@H](C)O)C(=O)N[C@@H](Cc1c[nH]c2ccccc12)C(N)=O [Compound 1, 2-(N-Acetyl-D-tyrosyl-trans-4-hydroxy-L-prolyl-L-asparaginyl-L-threonyl-L-phenylalanyl)-hydrazinocarbonyl-L-leucyl-Nω-methyl-L-arginyl-L-tryptophanamide] (Ac-[dY][Hyp]NTF[azaGly]L[Arg(Me)]W-NH2)",Mean percent cumulative urinary excretion at 24 hours postdose,[1]; 0.5 mg/day,8.99%
same,dose excreted,[1]; 0.5 mg/day,6.5%
same,Mean percent cumulative urinary excretion at 24 hours postdose,[1]; 1 mg/day,9.41%
same,dose excreted,[1]; 1 mg/day,8.86%
same,AUC(0-t),"[2]; iv, 1 mg/kg",3160 ± 594 ng·h/mL
same,Cmax at 5 min,"[2]; iv, 1 mg/kg",5030 ± 787 ng/mL
same,half-life,"[2]; iv, 1 mg/kg, T½ α",0.3 h
same,half-life,"[2]; iv, 1 mg/kg, T½ β",1.2 ± 0.1 h
same,half-life,[2]; [5],3.2 ± 0.1 h
same,AUC(0-t),"[2]; sc, 0.1 mg/kg",295 ± 27 ng·h/mL
same,Cmax,"[2]; sc, 0.1 mg/kg",123 ± 27.3 ng/mL
same,Tmax,"[2]; sc, 0.1 mg/kg",0.4 ± 0.1 h
same,bioavailability,"[2]; sc, 0.1 mg/kg",94.9 ± 12.4%
same,half-life,"[2]; sc, 0.1 mg/kg, T½ β",1.6 ± 0.3 h
same,AUC(0-t),"[2]; sc, 1 mg/kg",2790 ± 262 ng·h/mL
same,Cmax,"[2]; sc, 1 mg/kg",1320 ± 316 ng/mL
same,Tmax,"[2]; sc, 1 mg/kg",0.3 h
same,bioavailability,"[2]; sc, 1 mg/kg",90.1 ± 15.4%
same,half-life,"[2]; sc, 1 mg/kg, T½ β",1.4 ± 0.2 h
same,half-life,"[2]; sc, 1 mg/kg, T½ γ",2.5 ± 0.2 h
same,AUC(0-t),"[2]; sc, 10 mg/kg",31600 ng·h/mL
same,Cmax,"[2]; sc, 10 mg/kg",12100 ng/mL
same,Tmax,"[2]; sc, 10 mg/kg",0.4 ± 0.1 h
same,bioavailability,"[2]; sc, 10 mg/kg",102 ± 14.3%
same,half-life,"[2]; sc, 10 mg/kg, T½ β",1.5 ± 0.3 h
same,half-life,"[2]; sc, 10 mg/kg, T½ γ",2.6 ± 0.3 h
same,AUC(0-t),"[3]; iv, 1 mg/kg",3090 ± 80 ng·h/mL
same,Cmax at 5 min,"[3]; iv, 1 mg/kg",4250 ± 543 ng/mL
same,half-life,"[3]; iv, 1 mg/kg, T½ α",0.2 h
same,half-life,"[3]; iv, 1 mg/kg, T½ β",1.1 h
same,half-life,[3]; [5],3 ± 0.1 h
same,AUC(0-t),"[3]; sc, 0.1 mg/kg",252 ± 34 ng·h/mL
same,Cmax,"[3]; sc, 0.1 mg/kg",86.6 ± 19 ng/mL
same,Tmax,"[3]; sc, 0.1 mg/kg",0.8 ± 0.3 h
same,bioavailability,"[3]; sc, 0.1 mg/kg",81.5 ± 11.5%
same,half-life,"[3]; sc, 0.1 mg/kg, T½ β",1.4 ± 0.2 h
same,AUC(0-t),"[3]; sc, 1 mg/kg",2600 ± 219 ng·h/mL
same,Cmax,"[3]; sc, 1 mg/kg",883 ± 251 ng/mL
same,Tmax,"[3]; sc, 1 mg/kg",0.8 ± 0.3 h
same,bioavailability,"[3]; sc, 1 mg/kg",84 ± 8.1%
same,half-life,"[3]; sc, 1 mg/kg, T½ β",1.4 ± 0.3 h
same,half-life,"[3]; sc, 1 mg/kg, T½ γ",2.6 ± 0.2 h
same,AUC(0-t),"[3]; sc, 10 mg/kg",28600 ng·h/mL
same,Cmax,"[3]; sc, 10 mg/kg",8840 ± 1200 ng/mL
same,Tmax,"[3]; sc, 10 mg/kg",1 h
same,bioavailability,"[3]; sc, 10 mg/kg",92.7 ± 7.7%
same,half-life,"[3]; sc, 10 mg/kg, T½ β",1.5 ± 0.4 h
same,half-life,"[3]; sc, 10 mg/kg, T½ γ",2.6 ± 0.1 h
same,AUC(0-t),"[4]; iv, 1 mg/kg",1460 ± 143 ng·h/mL
same,Cmax at 5 min,"[4]; iv, 1 mg/kg",2670 ± 234 ng/mL
same,AUC(0-t),"[4]; sc, 0.1 mg/kg",123 ± 9 ng·h/mL
same,Cmax,"[4]; sc, 0.1 mg/kg",90 ± 12.5 ng/mL
same,Tmax,"[4]; sc, 0.1 mg/kg",0.5 h
same,AUC(0-t),"[4]; sc, 1 mg/kg",804 ± 133 ng·h/mL
same,Cmax,"[4]; sc, 1 mg/kg",381 ± 75.5 ng/mL
same,Tmax,"[4]; sc, 1 mg/kg",0.9 ± 0.2 h
same,bioavailability,"[4]; sc, 1 mg/kg",55.3 ± 8.6%
same,AUC(0-t),"[4]; sc, 10 mg/kg",309 ± 70 ng·h/mL
same,Cmax,"[4]; sc, 10 mg/kg",285 ± 58.6 ng/mL
same,Tmax,"[4]; sc, 10 mg/kg",0.3 h
